# Several values for one entry are separate records, joined by “and”; a condition that tells them apart may be missing. Equal entries are not always repeated. Where two headings read alike, the source gives them in different places.
# Columns and labels:
# SARS-CoV-2 = assay: microbe, parasite or virus in culture; type: cell-based, SARS-CoV-2 (nCoV/Washington/1/2020) in Vero E6 cells; details: for EC50: Severe acute respiratory syndrome coronavirus 2, Vero C1008, 24 h; for Percent Spike Positive Cells: relative to DMSO treated cells, single replicates
# SARS-CoV = details: cited from earlier work
# PLpro from MERS = details: cited from earlier work
# Vero E6 cells = details: cited from earlier work
# SARS-CoV-2 PLpro = SARS-CoV-2 PLpro (Severe acute respiratory syndrome coronavirus 2, UniProt P0DTD1); assay: biochemical
compound,measurement,setting,value
"Cc1ccc(N)cc1C(=O)N[C@H](C)c1cccc2ccccc12 [Compound 1, 5-amino-2-methyl-N-[(1R)-1-naphthalen-1-ylethyl]benzamide]",inhibition of virus replication,SARS-CoV-2,inhibiting virus replication
same,EC50,SARS-CoV-2,1.4 ± 0.65 µM
same,potency in SARS-CoV-infected Vero E6 cells,SARS-CoV,good potency
same,inhibition of MERS PLpro,PLpro from MERS,not inhibited
same,cytotoxicity,Vero E6 cells,low cytotoxicity
"CCCCNC(=O)Nc1ccc(C)c(C(=O)N[C@H](C)c2cccc3ccccc23)c1 [Compound 5, 5-(butylcarbamoylamino)-2-methyl-N-[(1R)-1-naphthalen-1-ylethyl]benzamide]",IC50,SARS-CoV-2 PLpro; IC50,16.8 µM and 32.8 µM
same,"PLpro assay signal (source data Figure 2, single replicates)","SARS-CoV-2 PLpro; Log(M) -3.30103, listed as 5 (Snyder539)",225 and 216 and 235
same,"PLpro assay signal (source data Figure 2, single replicates)","SARS-CoV-2 PLpro; Log(M) -3.60206, listed as 5 (Snyder539)",256 and 292 and 307
same,"PLpro assay signal (source data Figure 2, single replicates)","SARS-CoV-2 PLpro; Log(M) -4, listed as 5 (Snyder539)",289 and 427 and 447
same,"PLpro assay signal (source data Figure 2, single replicates)","SARS-CoV-2 PLpro; Log(M) -4.30103, listed as 5 (Snyder539)",464 and 626 and 554
same,"PLpro assay signal (source data Figure 2, single replicates)","SARS-CoV-2 PLpro; Log(M) -4.69897, listed as 5 (Snyder539)",802 and 736 and 827
same,"PLpro assay signal (source data Figure 2, single replicates)","SARS-CoV-2 PLpro; Log(M) -5, listed as 5 (Snyder539)",945 and 917 and 894
same,"PLpro assay signal (source data Figure 2, single replicates)","SARS-CoV-2 PLpro; Log(M) -5.39794, listed as 5 (Snyder539)",1120 and 1187 and 1137
same,"PLpro assay signal (source data Figure 2, single replicates)","SARS-CoV-2 PLpro; Log(M) -5.69897, listed as 5 (Snyder539)",1190 and 1202 and 1324
same,"PLpro assay signal (source data Figure 2, single replicates)","SARS-CoV-2 PLpro; Log(M) -6.09691, listed as 5 (Snyder539)",1485 and 1470 and 1518
same,"PLpro assay signal (source data Figure 2, single replicates)","SARS-CoV-2 PLpro; Log(M) -6.39794, listed as 5 (Snyder539)",1389 and 1269 and 1337
same,EC50,SARS-CoV-2; read-out: EC50,2.5 µM
same,inhibition of virus replication,"SARS-CoV-2; Vero E6, SARS-CoV-2",inhibiting virus replication
same,Percent Spike Positive Cells,SARS-CoV-2; [Drug] 0.1 uM,115%
same,Percent Spike Positive Cells,SARS-CoV-2; [Drug] 1 uM,115%
same,Percent Spike Positive Cells,SARS-CoV-2; [Drug] 10 uM,69% and 115% and 92%
"Cc1ccc(NC(=O)Oc2ccc([N+](=O)[O-])cc2)cc1C(=O)N[C@H](C)c1cccc2ccccc12 [Compound 6, 5-(((4-nitrophenoxy)carbonyl)amino)-2-methyl-N-[(1R)-1-naphthalen-1-ylethyl]benzamide]","PLpro assay signal (source data Figure 2, single replicates)","SARS-CoV-2 PLpro; Log(M) -3.30103, listed as 6 (Snyder538)",62 and 61 and 69
same,"PLpro assay signal (source data Figure 2, single replicates)","SARS-CoV-2 PLpro; Log(M) -3.60206, listed as 6 (Snyder538)",86 and 78 and 83
same,"PLpro assay signal (source data Figure 2, single replicates)","SARS-CoV-2 PLpro; Log(M) -4, listed as 6 (Snyder538)",127 and 161 and 203
same,"PLpro assay signal (source data Figure 2, single replicates)","SARS-CoV-2 PLpro; Log(M) -4.30103, listed as 6 (Snyder538)",120 and 170 and 193
same,"PLpro assay signal (source data Figure 2, single replicates)","SARS-CoV-2 PLpro; Log(M) -4.69897, listed as 6 (Snyder538)",420 and 406 and 486
same,"PLpro assay signal (source data Figure 2, single replicates)","SARS-CoV-2 PLpro; Log(M) -5, listed as 6 (Snyder538)",662 and 534 and 618
same,"PLpro assay signal (source data Figure 2, single replicates)","SARS-CoV-2 PLpro; Log(M) -5.39794, listed as 6 (Snyder538)",926 and 988 and 896
same,"PLpro assay signal (source data Figure 2, single replicates)","SARS-CoV-2 PLpro; Log(M) -5.69897, listed as 6 (Snyder538)",1105 and 1269 and 1030
same,"PLpro assay signal (source data Figure 2, single replicates)","SARS-CoV-2 PLpro; Log(M) -6.09691, listed as 6 (Snyder538)",1318 and 1309 and 1349
same,"PLpro assay signal (source data Figure 2, single replicates)","SARS-CoV-2 PLpro; Log(M) -6.39794, listed as 6 (Snyder538)",1380 and 1317 and 1379
same,IC50,"SARS-CoV-2 PLpro; pH 7.3, read-out: IC50",7 ± 0.6 µM
same,inhibition of virus replication,"SARS-CoV-2; Vero E6, SARS-CoV-2",inhibiting virus replication
same,Percent Spike Positive Cells,SARS-CoV-2; [Drug] 0.1 uM,92% and 115% (2×)
same,Percent Spike Positive Cells,SARS-CoV-2; [Drug] 1 uM,115%
same,Percent Spike Positive Cells,SARS-CoV-2; [Drug] 10 uM,46% and 69%
"CCCCC(=O)Nc1ccc(C)c(C(=O)N[C@H](C)c2cccc3ccccc23)c1 [Compound 7, 5-pentanoylamino-2-methyl-N-[(1R)-1-naphthalen-1-ylethyl]benzamide]","PLpro assay signal (source data Figure 2, single replicates)","SARS-CoV-2 PLpro; Log(M) -3.30103, listed as 7 (Snyder514)",189 and 225 and 281
same,"PLpro assay signal (source data Figure 2, single replicates)","SARS-CoV-2 PLpro; Log(M) -3.60206, listed as 7 (Snyder514)",257 and 276 and 274
same,"PLpro assay signal (source data Figure 2, single replicates)","SARS-CoV-2 PLpro; Log(M) -4, listed as 7 (Snyder514)",332 and 331 and 303
same,"PLpro assay signal (source data Figure 2, single replicates)","SARS-CoV-2 PLpro; Log(M) -4.30103, listed as 7 (Snyder514)",346 and 354 and 361
same,"PLpro assay signal (source data Figure 2, single replicates)","SARS-CoV-2 PLpro; Log(M) -4.69897, listed as 7 (Snyder514)",672 and 717 and 815
same,"PLpro assay signal (source data Figure 2, single replicates)","SARS-CoV-2 PLpro; Log(M) -5, listed as 7 (Snyder514)",856 and 922 and 1036
same,"PLpro assay signal (source data Figure 2, single replicates)","SARS-CoV-2 PLpro; Log(M) -5.39794, listed as 7 (Snyder514)",1160 and 1233 and 1196
same,"PLpro assay signal (source data Figure 2, single replicates)","SARS-CoV-2 PLpro; Log(M) -5.69897, listed as 7 (Snyder514)",1260 and 1362 and 1272
same,"PLpro assay signal (source data Figure 2, single replicates)","SARS-CoV-2 PLpro; Log(M) -6.09691, listed as 7 (Snyder514)",1429 and 1375 and 1302
same,"PLpro assay signal (source data Figure 2, single replicates)","SARS-CoV-2 PLpro; Log(M) -6.39794, listed as 7 (Snyder514)",1493 and 1486 and 1598
same,IC50,"SARS-CoV-2 PLpro; pH 7.3, read-out: IC50",12.7 ± 1.3 µM
same,EC50,SARS-CoV-2; read-out: EC50,5.2 ± 4.2 µM
same,inhibition of virus replication,"SARS-CoV-2; Vero E6, SARS-CoV-2",inhibiting virus replication
same,Percent Spike Positive Cells,SARS-CoV-2; [Drug] 0.1 uM,115% (2×) and 92%
same,Percent Spike Positive Cells,SARS-CoV-2; [Drug] 1 uM,69% (2×) and 115%
same,Percent Spike Positive Cells,SARS-CoV-2; [Drug] 10 uM,46% and 23% and 35%
